Test system: human PKR
Test: Western blot analysis of PKR protein in U937 transfectants
Assay type: cell-based
Conditions: U937-neo cells
Experimental: Cell extracts (100 μg) were separated on a 10% SDS-polyacrylamide gel and electrotransferred onto nitrocellulose membrane. The membranes were incubated with anti-PKR monoclonal antibody (Meurs et al. Cell 1990) at 1:1000 in BLOTTO (5% nonfat dry milk, 0.05% Tween-20 in Tris-buffered saline). Final detection of PKR was facilitated by probing with a secondary horseradish peroxidase-conjugated goat anti-mouse antibody (Santa Cruz Biotech) and using a chemiluminesence method (Amersham ECL).

IFN-γ: recombinant human IFN-γ, Amgen
PKR protein level following treatment with IFN: increased
